From patent US20240316047A1, “INHIBITORS OF RNA HELICASE DHX9 AND USES THEREOF” (ACCENT THERAPEUTICS, INC., priority 2022, published 2024) come the findings set out here.

This assay addresses Human recombinant DHX9 protein (Homo sapiens (Human), UniProt Q08211). The experiment in a line: DHX9 ATPase assay (ADP-Glo). The class given is biochemical. The settings on record: for IC50: read-out: DHX9 Biochemical Inflection Point. A general note: ADP-Glo first removes unused ATP, then detects ADP through luciferase.

Human recombinant DHX9 protein, sequence (Q08211 whole entry): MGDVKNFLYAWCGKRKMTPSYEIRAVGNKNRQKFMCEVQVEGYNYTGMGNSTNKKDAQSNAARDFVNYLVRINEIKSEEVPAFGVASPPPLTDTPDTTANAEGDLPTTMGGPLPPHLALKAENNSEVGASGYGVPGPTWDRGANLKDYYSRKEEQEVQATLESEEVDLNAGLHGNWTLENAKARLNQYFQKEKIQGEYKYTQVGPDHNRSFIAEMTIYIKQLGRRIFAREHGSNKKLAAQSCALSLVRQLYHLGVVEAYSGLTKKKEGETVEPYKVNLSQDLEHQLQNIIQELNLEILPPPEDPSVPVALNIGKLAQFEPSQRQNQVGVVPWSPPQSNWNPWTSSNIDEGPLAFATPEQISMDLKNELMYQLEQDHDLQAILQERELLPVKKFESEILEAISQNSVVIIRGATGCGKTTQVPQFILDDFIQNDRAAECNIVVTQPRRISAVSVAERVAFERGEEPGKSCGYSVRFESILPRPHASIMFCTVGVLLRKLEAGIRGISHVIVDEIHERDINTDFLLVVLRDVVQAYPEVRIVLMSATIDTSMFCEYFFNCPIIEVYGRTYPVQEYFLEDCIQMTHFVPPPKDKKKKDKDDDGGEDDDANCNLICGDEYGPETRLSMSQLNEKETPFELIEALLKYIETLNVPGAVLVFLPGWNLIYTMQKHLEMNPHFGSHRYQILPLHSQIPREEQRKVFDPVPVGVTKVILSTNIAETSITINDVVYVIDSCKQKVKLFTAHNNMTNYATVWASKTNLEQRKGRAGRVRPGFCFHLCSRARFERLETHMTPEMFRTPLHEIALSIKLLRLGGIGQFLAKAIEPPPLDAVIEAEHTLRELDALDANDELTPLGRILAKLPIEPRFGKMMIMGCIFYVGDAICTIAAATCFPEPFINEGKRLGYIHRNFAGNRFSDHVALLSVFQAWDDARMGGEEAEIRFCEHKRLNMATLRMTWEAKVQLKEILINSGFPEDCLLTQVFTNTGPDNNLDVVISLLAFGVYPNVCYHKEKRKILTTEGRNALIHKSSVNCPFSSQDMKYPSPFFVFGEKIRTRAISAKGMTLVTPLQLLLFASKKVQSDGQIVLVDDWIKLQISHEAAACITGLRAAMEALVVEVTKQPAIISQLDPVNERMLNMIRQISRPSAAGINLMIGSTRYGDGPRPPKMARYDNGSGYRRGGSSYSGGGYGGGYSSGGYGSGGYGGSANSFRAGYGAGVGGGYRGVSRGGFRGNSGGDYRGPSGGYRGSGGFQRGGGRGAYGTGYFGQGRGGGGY

As to `Cn1cc(C(=O)Nc2cc(Cl)cc(NS(C)(=O)=O)c2)cc1-c1ccc(N2CC(S(C)(=O)=O)C2)cn1` [Example 519], the “DHX9 Biochemical Max Inhibition” value is recorded as 71.2 and the IC50 stood at 8.1 nM.
The corresponding values for `Cn1cc(C(=O)Nc2cc(Cl)cc(NS(C)(=O)=O)c2)cc1-c1ncc(N2CCCC2)cn1` [Example 520] are 70.8 and 13.7 nM.
Taken in the same sequence, the figures for `Cn1cc(C(=O)Nc2cc(Cl)cc(NS(C)(=O)=O)c2)cc1-c1ncc(N2CCC2)cn1` [Example 521] were 71.8 and 3.5 nM.
The corresponding values for `Cc1cc(C(=O)Nc2cc(Cl)cc(NS(C)(=O)=O)c2)cn1-c1ccc(N2CCC3(CC3)C2)cn1` [Example 522] are 71.8 and 40.8 nM.
Turning to `Cc1cc(C(=O)Nc2cc(Cl)cc(NS(C)(=O)=O)c2)cn1-c1ccc(N2C3CCC2CC3)cn1` [Example 523], the “DHX9 Biochemical Max Inhibition” value is reported as 64.1 and the IC50 came to 31.4 nM.
Taken in the same sequence, the figures for `Cn1cc(C(=O)Nc2cc(Cl)cc(NS(C)(=O)=O)c2)cc1-c1ncc(N2CC(C(F)(F)F)C2)cc1F` [Example 524, N-(3-chloro-5-methanesulfonamidophenyl)-5-{3-fluoro-5-[3-(trifluoromethyl)azetidin-1-yl]pyridin-2-yl}-1-methyl-1H-pyrrole-3-carboxamide] were 62.65 and 32.9 nM.
The corresponding values for `Cn1cc(C(=O)Nc2cc(Cl)cc(NS(C)(=O)=O)c2)cc1-c1ncc(N2CCC(F)(F)C2)cc1F` [Example 525] are 63.3 and 43.3 nM.
The corresponding values for `Cn1cc(C(=O)Nc2cc(Cl)cc(NS(C)(=O)=O)c2)cc1-c1ncc(N2CCC(F)(F)C2)cn1` [Example 526] are 61.7 and 17.4 nM.
For `Cn1cc(C(=O)Nc2cc(Cl)cc(NS(C)(=O)=O)c2)cc1-c1ccc(N2CCC(F)(F)C2)cn1` [Example 527], the “DHX9 Biochemical Max Inhibition” value is listed as 65.3 and the IC50 worked out at 42.4 nM.
The corresponding values for `COc1cc(N2CC(F)(F)C2)cnc1-c1cc(C(=O)Nc2cc(Cl)cc(NS(=O)(=O)CCO)c2)sc1C` [Example 528] are 61.5 and 26.2 nM.
The corresponding values for `Cc1sc(C(=O)Nc2cc(Cl)cc(NS(=O)(=O)CCO)c2)cc1-c1ncc(N2CC(C(F)(F)F)C2)cc1F` [Example 529] are 57.3 and 163 nM.
Taken in the same sequence, the figures for `Cn1cc(C(=O)Nc2cc(Cl)cc(NS(=O)(=O)C3CC3)c2)cc1-c1ccc(N2CC(F)(F)C2)cn1` [Example 530] were 83.7 and 427 nM.
Regarding `CCCS(=O)(=O)Nc1cc(Cl)cc(NC(=O)c2cc(-c3ccc(N4CC(F)(F)C4)cn3)n(C)c2)c1` [Example 531], the “DHX9 Biochemical Max Inhibition” value amounted to 72.3 and the IC50 was found to be 2600 nM.
The corresponding values for `Cc1sc(C(=O)Nc2cc(Cl)cc(NS(C)(=O)=O)c2)cc1-c1ncc(N2CC(F)(F)C2)cc1F` [Example 532, N-(3-chloro-5-methanesulfonamidophenyl)-4-[5-(3,3-difluoroazetidin-1-yl)-3-fluoropyridin-2-yl]-5-methylthiophene-2-carboxamide] are 70.8 and 26.4 nM.
Taken in the same sequence, the figures for `Cc1sc(C(=O)Nc2cc(Cl)cc(NS(C)(=O)=O)c2)cc1-c1ccc(N2CC(F)(F)C2)cn1` [Example 533] were 83.2 and 7.2 nM.
Turning to `Cc1sc(C(=O)Nc2cc(Cl)cc(NS(C)(=O)=O)c2)cc1-c1ncc(N2CC(F)(F)C2)cc1OC(C)C` [Example 534], the “DHX9 Biochemical Max Inhibition” value is listed as 78.3 and the IC50 amounted to 19.9 nM.
Taken in the same sequence, the figures for `COc1cc(N2CC(F)(F)C2)cnc1-c1cc(C(=O)Nc2cc(Cl)cc(NS(C)(=O)=O)c2)sc1C` [Example 535] were 84.2 and 3.4 nM.
With `Cc1sc(C(=O)Nc2cc(Cl)cc(NS(C)(=O)=O)c2)cc1-c1ncc(N2CC(F)(F)C2)cc1OC(F)F` [Example 536], the “DHX9 Biochemical Max Inhibition” value is recorded as 69.7 and the IC50 came out at 45.3 nM.
The corresponding values for `Cc1cc(N2CC(F)(F)C2)cnc1-c1cc(C(=O)Nc2cc(Cl)cc(NS(C)(=O)=O)c2)sc1C` [Example 537] are 63 and 20.8 nM.
The corresponding values for `Cn1cc(C(=O)Nc2cc(Cl)cc(NS(C)(=O)=O)c2)cc1-c1ccc(N2CCC2)cn1` [Example 538] are 66.9 and 9.2 nM.
Taken in the same sequence, the figures for `Cn1cc(C(=O)Nc2cc(Cl)cc(NS(C)(=O)=O)c2)cc1-c1ccc(N2CC(F)C2)cn1` [Example 539] were 76 and 18.1 nM.
Turning to `Cn1cc(C(=O)Nc2cc(Cl)cc(NS(C)(=O)=O)c2)cc1-c1ncc(F)cc1F` [Example 540, N-(3-chloro-5-methanesulfonamidophenyl)-5-(3,5-difluoropyridin-2-yl)-1-methyl-1H-pyrrole-3-carboxamide], the “DHX9 Biochemical Max Inhibition” value was 67.5 and the IC50 stood at 17.4 nM.
Taken in the same sequence, the figures for `Cc1sc(C(=O)Nc2cc(Cl)cc(NS(C)(=O)=O)c2)cc1-c1ncc(OC(C)C)cn1` [Example 541, N-(3-chloro-5-(methylsulfonamido)phenyl)-4-(5-isopropoxypyrimidin-2-yl)-5-methylthiophene-2-carboxamide] were 74.1 and 15.1 nM.
The corresponding values for `CCS(=O)(=O)Nc1cc(Cl)cc(NC(=O)c2cc(-c3ncc(F)cn3)n(C)c2)c1` [Example 542] are 73 and 30 nM.
As to `CCS(=O)(=O)Nc1cc(Cl)cc(NC(=O)c2cc(-c3ncc(F)cc3F)n(C)c2)c1` [Example 543], the “DHX9 Biochemical Max Inhibition” value came out at 60.2 and the IC50 is 48.6 nM.
The corresponding values for `Cn1cc(C(=O)Nc2cc(Cl)cc(NS(C)(=O)=O)c2)cc1-c1ncc(F)cc1Cl` [Example 544] are 66.5 and 59 nM.
The corresponding values for `Cc1cc(F)cnc1-c1cc(C(=O)Nc2cc(Cl)cc(NS(C)(=O)=O)c2)cn1C` [Example 545] are 64.7 and 74.2 nM.
The corresponding values for `Cn1cc(C(=O)Nc2cc(Cl)cc(NS(C)(=O)=O)c2)cc1-c1ncc(F)cc1C#N` [Example 546] are 73.6 and 13.1 nM.
Consider `Cn1cc(C(=O)Nc2cc(Cl)cc(NS(C)(=O)=O)c2)cc1-c1c(F)cc(F)cc1F` [Example 547], for which the “DHX9 Biochemical Max Inhibition” value is 81.1 and the IC50 stood at 126 nM.
The corresponding values for `CCS(=O)(=O)Nc1cc(Cl)cc(NC(=O)c2cc(-c3ncc(C)cc3F)n(C)c2)c1` [Example 548] are 64.6 and 27.3 nM.
On to `COc1cnc(-c2cc(C(=O)Nc3cc(Cl)cc(NS(C)(=O)=O)c3)cn2C)nc1` [Example 549], for which the “DHX9 Biochemical Max Inhibition” value was 73.6 and the IC50 is 19 nM.
On to `COc1cc(C(F)(F)F)cnc1-c1cc(C(=O)Nc2cc(Cl)cc(NS(C)(=O)=O)c2)sc1C` [Example 550], for which the “DHX9 Biochemical Max Inhibition” value was found to be 99.8 and the IC50 worked out at 25 nM.
Taken in the same sequence, the figures for `Cn1cc(C(=O)Nc2cc(Cl)cc(NS(C)(=O)=O)c2)cc1-c1cccc(N2CC(F)(F)C2)n1` [Example 551] were 87.4 and 105 nM.
The corresponding values for `Cn1cc(C(=O)Nc2cc(Cl)cc(NS(C)(=O)=O)c2)cc1-c1cc(N2CC(F)(F)C2)ccn1` [Example 552] are 89.7 and 16.6 nM.
Taken in the same sequence, the figures for `Cn1cc(C(=O)Nc2cc(Cl)cc(NS(C)(=O)=O)c2)cc1-c1ncc(OC(F)F)cn1` [Example 553] were 80.2 and 20.3 nM.
As to `Cn1cc(C(=O)Nc2cc(Cl)cc(NS(C)(=O)=O)c2)cc1-c1ncc(C(F)(F)F)cc1F` [Example 554], the “DHX9 Biochemical Max Inhibition” value stood at 79.7 and the IC50 worked out at 76.1 nM.
Turning to `Cn1cc(C(=O)Nc2cc(Cl)cc(NS(C)(=O)=O)c2)cc1-c1ccc(OC(C)(C)C)cn1` [Example 555], the “DHX9 Biochemical Max Inhibition” value was found to be 61.9 and the IC50 is 43.6 nM.
On to `Cn1cc(C(=O)Nc2cc(Cl)cc(NS(C)(=O)=O)c2)cc1-c1ncc(OC(C)(C)C)cn1` [Example 556], for which the “DHX9 Biochemical Max Inhibition” value is 64.8 and the IC50 worked out at 20.6 nM.
Taken in the same sequence, the figures for `Cn1cc(C(=O)Nc2cc(Cl)cc(NS(C)(=O)=O)c2)cc1-c1ncc(OC(C)(C)C)cc1F` [Example 557] were 59.8 and 37.1 nM.
The corresponding values for `Cn1cc(C(=O)Nc2cc(F)cc(NS(C)(=O)=O)c2)cc1-c1ncc(F)cc1F` [Example 558] are 78 and 45.8 nM.
The corresponding values for `Cc1sc(C(=O)Nc2cc(Cl)cc(NS(C)(=O)=O)c2)cc1-c1ncc(OC(C)(C)C)cn1` [Example 559] are 72.175 and 33.4 nM.
Consider `CS(=O)(=O)Nc1cc(Cl)cc(NC(=O)c2c[nH]c(-c3ncc(F)cc3F)c2)c1` [Example 560], for which the “DHX9 Biochemical Max Inhibition” value was determined as 59 and the IC50 turned out to be 51 nM.
On to `CCOc1cc(F)cnc1-c1cc(C(=O)Nc2cc(Cl)cc(NS(C)(=O)=O)c2)cn1C` [Example 561], for which the “DHX9 Biochemical Max Inhibition” value was determined as 69.7 and the IC50 is 15.9 nM.
The corresponding values for `CS(=O)(=O)Nc1cc(Cl)cc(NC(=O)c2cc(-c3ncc(F)cn3)n(CC(F)(F)F)c2)c1` [Example 562] are 62.3 and 64.5 nM.
Regarding `COc1cnc(-c2cc(C(=O)Nc3cc(Cl)cc(NS(C)(=O)=O)c3)cn2CC(F)(F)F)nc1` [Example 563], the “DHX9 Biochemical Max Inhibition” value is 66.9 and the IC50 was 71.3 nM.
The corresponding values for `CS(=O)(=O)Nc1cc(Cl)cc(NC(=O)c2cc(-c3ncccc3F)n(CC(F)(F)F)c2)c1` [Example 564] are 77.8 and 70.1 nM.
